According to patent US11607446B2, “Personalized immunotherapy against several neuronal and brain tumors” (Immatics Biotechnologies GmbH, priority 2013, dated 2023):
Where no end group is shown, it is not given here.

Test system: CD8+ T cells
Test: In vitro immunogenicity of HLA-A*02 class I peptides: in vitro T-cell priming with aAPCs loaded with peptide/MHC complexes and anti-CD28 antibody, pMHC multimer readout
Format: cell-based, human
Settings: HLA-A*02 peptides; for Donors / Donors (percentage in brackets): healthy donors; for Donors: specific multimer+ CD8+ T-cell line after in vitro stimulation; for Wells: in vitro stimulated wells of healthy donors' CD8+ T cells, specific multimer+ readout

| Substance | Donors | Wells | Donors (percentage in brackets) |
| --- | --- | --- | --- |
| AIIDGVESV (listed as Homo sapiens) [PTP-003] | ++++ (>70% = ++++) | + (<20% = +) | – |
| ALADIAVGV (listed as Homo sapiens) [ADORA3-001] | ++ (20%-49 % = ++) | + (<20% = +) | – |
| ALAFKLDEV (listed as Homo sapiens) [SLC10A4-001] | +++ (50%-70% = +++) | ++ (20%-49 % = ++) | – |
| ALFNKGGSVFL (listed as Homo sapiens) [GPR98-001] | ++ (20%-49 % = ++) | + (<20% = +) | – |
| ALGDIREV (listed as Homo sapiens) [ANKRD40-001] | +++ (50%-70% = +++) | + (<20% = +) | – |
| ALTTLMHQL (listed as Homo sapiens) [PTP-001] | ++ (20%-49 % = ++) | + (<20% = +) | – |
| ALWAWPSEL (listed as Homo sapiens) [BCA-002] | ++++ (>70% = ++++) | ++++ (>70% = ++++) | 100% |
| AMTQLLAGV (listed as Homo sapiens) [TNC-001] | ++ (20%-49 % = ++) | + (<20% = +) | – |
| AVAPGPWKV (listed as Homo sapiens) [MAGI2-001] | ++ (20%-49 % = ++) | + (<20% = +) | – |
| AVVEFLTSV (listed as Homo sapiens) [DROSHA-001] | ++ (20%-49 % = ++) | + (<20% = +) | – |
| EILDYIYEV (listed as Homo sapiens) [ASIC4-001] | ++ (20%-49 % = ++) | + (<20% = +) | – |
| FLDSKFYLL (listed as Homo sapiens) [MAP1B-001] | +++ (50%-70% = +++) | + (<20% = +) | – |
| FLLPDTDGLTAL (listed as Homo sapiens) [PTP-012] | ++ (20%-49 % = ++) | + (<20% = +) | – |
| FLVDGSWSI (listed as Homo sapiens) [COL20-001] | ++ (20%-49 % = ++) | + (<20% = +) | – |
| FLWSDGVPL (listed as Homo sapiens) [BCA-003] | ++ (20%-49 % = ++) | + (<20% = +) | – |
| FLYKVILSL (listed as Homo sapiens) [PTP-002] | +++ (50%-70% = +++) | + (<20% = +) | – |
| FLYNEALYSL (listed as Homo sapiens) [DPP3-001] | +++ (50%-70% = +++) | + (<20% = +) | – |
| GLDPSSGAIHV (listed as Homo sapiens) [PCDHGC5-001] | ++++ (>70% = ++++) | + (<20% = +) | 100% |
| GLLDQIQAL (listed as Homo sapiens) [NLGN4X-002] | ++ (20%-49 % = ++) | + (<20% = +) | – |
| GLMEKIKEL (listed as Homo sapiens) [CPT1C-001] | ++ (20%-49 % = ++) | + (<20% = +) | – |
| GLPSGAPPGV (listed as Homo sapiens) [MTSS1L-001] | ++++ (>70% = ++++) | +++ (50%-70% = +++) | 100% |
| GLSEFTEYL (listed as Homo sapiens) [MAP1B-002] | ++ (20%-49 % = ++) | + (<20% = +) | – |
| GLWHHQTEV (listed as Homo sapiens) [NRC AM-001] | ++++ (>70% = ++++) | + (<20% = +) | 100% |

| Substance | Donors | Wells | Donors (percentage in brackets) |
| --- | --- | --- | --- |
| GMMTAILGV (listed as Homo sapiens) [SLC35E1-002] | ++ (20%-49 % = ++) | + (<20% = +) | – |
| GVLENIFGV (listed as Homo sapiens) [PCNXL3-001] | ++ (20%-49 % = ++) | + (<20% = +) | – |
| ILFEINPKL (listed as Homo sapiens) [ABCA13-001] | ++ (20%-49 % = ++) | + (<20% = +) | – |
| ILFPDIIARA (listed as Homo sapiens) [MAGEF1-001] | ++++ (>70% = ++++) | ++ (20%-49 % = ++) | – |
| ILIDWLVQV (listed as Homo sapiens) [CCNB1-002] | +++ (50%-70% = +++) | + (<20% = +) | – |
| KIQEILTQV (listed as Homo sapiens) [IGF2BP3-001] | +++ (50%-70% = +++) | + (<20% = +) | – |
| KLADQYPHL (listed as Homo sapiens) [SOX-001] | ++++ (>70% = ++++) | + (<20% = +) | – |
| KLCEGFNEV (listed as Homo sapiens) [CHCHD2-005] | +++ (50%-70% = +++) | + (<20% = +) | – |
| KLFDSDPITVTV (listed as Homo sapiens) [CLU-001] | ++ (20%-49 % = ++) | + (<20% = +) | – |
| KLGDFGLATVV (listed as Homo sapiens) [DCA-001] | ++ (20%-49 % = ++) | + (<20% = +) | – |
| KLTDIQIEL (listed as Homo sapiens) [JAK-001] | ++ (20%-49 % = ++) | + (<20% = +) | – |
| KLVEFDFLGA (listed as Homo sapiens) [TACC3-001] | ++ (20%-49 % = ++) | + (<20% = +) | – |
| KVFAGIPTV (listed as Homo sapiens) [PTP-005] | ++++ (>70% = ++++) | ++ (20%-49 % = ++) | – |
| KVFDEVIEV (listed as Homo sapiens) [GYG2-001] | ++ (20%-49 % = ++) | + (<20% = +) | – |
| LLLGSPAAA (listed as Homo sapiens) [SEZ6L-001] | ++++ (>70% = ++++) | + (<20% = +) | – |
| LLQDRLVSV (listed as Homo sapiens) [PLEKHA4-001] | +++ (50%-70% = +++) | + (<20% = +) | – |
| LLWGNAIFL (listed as Homo sapiens) [KIF1A-001] | +++ (50%-70% = +++) | ++ (20%-49 % = ++) | – |
| LLYDAVHIV (listed as Homo sapiens) [GRIK3-001] | ++++ (>70% = ++++) | + (<20% = +) | – |
| LLYTGDLEAL (listed as Homo sapiens) [NPAS3-001] | ++ (20%-49 % = ++) | + (<20% = +) | – |
| LTAPPEALLMV (listed as Homo sapiens) [NOC4-001] | +++ (50%-70% = +++) | + (<20% = +) | – |
| LTFGDVVAV (listed as Homo sapiens) [FABP7-001] | ++++ (>70% = ++++) | + (<20% = +) | – |
| MIWEHNVEV [PTP-013] | ++++ (>70% = ++++) | + (<20% = +) | – |
| MLFGHPLLVSV (listed as Homo sapiens) [USP11-001] | ++++ (>70% = ++++) | ++ (20%-49 % = ++) | – |

| Substance | Donors | Wells | Donors (percentage in brackets) |
| --- | --- | --- | --- |
| NILEQIVSV (listed as Homo sapiens) [GRI-001] | ++ (20%-49 % = ++) | + (<20% = +) | – |
| NLDTLMTYV (listed as Homo sapiens) [NLGN4X-001] | ++++ (>70% = ++++) | ++ (20%-49 % = ++) | 100% |
| NLLAEIHGV (listed as Homo sapiens) [DPYSL4-001] | ++ (20%-49 % = ++) | + (<20% = +) | – |
| RLGIKPESV (listed as Homo sapiens) [CSRP2-001] | ++++ (>70% = ++++) | ++ (20%-49 % = ++) | 100% |
| RLISKFDTV (listed as Homo sapiens) [EIF4E-001] | +++ (50%-70% = +++) | + (<20% = +) | – |
| RVADYIVKV [SLC10A4-002] | +++ (50%-70% = +++) | + (<20% = +) | – |
| RVAS*PTSGV (RVASPTSGV; not fully specified (residue 4); printed as RVAS*PTSGV; listed as Homo sapiens) [IRS-001] | +++ (50%-70% = +++) | + (<20% = +) | – |
| SLADFMQEV (listed as Homo sapiens) [CNOT1-002] | ++ (20%-49 % = ++) | + (<20% = +) | – |
| SLAERLFFQV (listed as Homo sapiens) [NAT8L-001] | ++++ (>70% = ++++) | + (<20% = +) | – |
| SLDTLMTYV (listed as Homo sapiens) [NLGN4Y-001] | ++++ (>70% = ++++) | + (<20% = +) | – |
| SLGLFLAQV (listed as Homo sapiens) [SCARA3-001] | ++ (20%-49 % = ++) | + (<20% = +) | – |
| SLWGGDVVL (listed as Homo sapiens) [VPS13B-001] | ++++ (>70% = ++++) | ++ (20%-49 % = ++) | 100% |
| SLYKGLLSV (listed as Homo sapiens) [RAD54B-001] | ++++ (>70% = ++++) | ++ (20%-49 % = ++) | 100% |
| TLLAAEFLKQV (listed as Homo sapiens) [CCT-001] | +++ (50%-70% = +++) | + (<20% = +) | – |
| TLTNIIHNL (listed as Homo sapiens) [ORMDL1-002] | +++ (50%-70% = +++) | + (<20% = +) | – |
| TLWYRAPEV (listed as Homo sapiens) [CDK4-001] | ++++ (>70% = ++++) | ++ (20%-49 % = ++) | – |
| TMLARLASA (listed as Homo sapiens) [CSP-001] | +++ (50%-70% = +++) | + (<20% = +) | – |
| TMMSRPPVL (listed as Homo sapiens) [WLS-002] | +++ (50%-70% = +++) | + (<20% = +) | – |
| VLCGPPPAV (listed as Homo sapiens) [NC AN-001] | ++++ (>70% = ++++) | + (<20% = +) | 100% |
| VLIQDVPTL (listed as Homo sapiens) [GRI-002] | ++ (20%-49 % = ++) | + (<20% = +) | – |
| YLPTFFLTV (listed as Homo sapiens) [ELOVL2-001] | ++++ (>70% = ++++) | + (<20% = +) | – |
